This is an account of results in patent US10131634B2, “Method of treating pain” (Poseida Therapeutics, Inc., priority 2011, dated 2018).

Structures are written as SMILES.

Data set [1] relates to wild type rats. Put plainly: Pain related behaviours after colon mustard (MO) infusion in wild type rats. Format: in vivo, rat.
Data set [2] has as its system wild type rats. Kind of data set: Side effects in wild type rats dosed with compound. It is filed as in vivo, rat. The protocol: The quinoline structure Formula 1a is tested in cells and rats.

Turning to `Cc1cc(N2CCCCC2)nc2ccccc12` [Formula 1a], in the data set with wild type rats [1] (colon mustard infusion, FIG. 1 (lower body licking)), the inhibition of pain result is recorded as “dose responsive inhibition of pain”. In the data set with wild type rats [2], the cardiotoxicity result is listed as “no cardiotoxicity” and the side effects entry is “no obvious side effects”.

With `CN1CC[C@]23c4c5ccc(O)c4O[C@H]2[C@@H](O)C=C[C@H]3[C@H]1C5` [morphine, reference compound], the “doses to inhibit pain related behaviors induced by intracolonic MO infusion (morphine equivalency)” value with wild type rats [1] (pre-treatment, s.c., FIGS. 7-9) is on record as “requires much higher doses”.
